{"source": "paper PMC8319603", "about": "“Developing C2-Aroyl Indoles as Novel Inhibitors of IDO1 and Understanding Their Mechanism of Inhibition via Mass Spectroscopy, QM/MM Calculations and Molecular Dynamics Simulation” (Frontiers in Chemistry, 2021)", "origin": "cited, not measured here", "key": {"hIDO1": {"tested_on": "hIDO1", "conditions": "2017, cited from earlier work"}, "HeLa": {"tested_on": "HeLa", "conditions": "Figure 1; ref Prendergast et al., 2017; cited from earlier work"}, "SKOV3": {"tested_on": "SKOV3", "set-up": "method as in Siu et al., 2017; Wen et al., 2019", "conditions": "Figure 1; ref Siu et al., 2017; Wen et al., 2019; cited from earlier work"}}, "note": "Read-outs that look alike come from different tables or passages of the source.", "data": [{"molecule": "NS(=O)(=O)NCCNc1nonc1C(=NO)Nc1ccc(F)c(Br)c1", "note": "[1b]", "values": [{"measurement": "IC50", "setting": "hIDO1; ref Prendergast et al., read-out: IC50 against IDO1", "value": "[…]"}, {"measurement": "IC50", "setting": "HeLa", "value": 1.5, "unit": "nM"}]}, {"molecule": "O=C1CC(c2c[nH]c3ccc(F)cc23)C(=O)N1", "note": "(centres unmarked) [1d]", "values": [{"measurement": "IC50", "setting": "hIDO1; Figure 1, ref Siu et al., Wen et al., 2019, read-out: IC50 (IDO1)", "value": "[…]"}, {"measurement": "IC50", "setting": "SKOV3", "value": 70, "unit": "nM"}]}, {"molecule": "C[C@@H](C(=O)Nc1ccc(Cl)cc1)C1CCC(c2ccnc3ccc(F)cc23)CC1", "note": "(some centres unmarked) [1e]", "values": [{"measurement": "IC50", "setting": "SKOV3", "value": 3.4, "unit": "nM"}]}]}
